According to patent publication US8618138B2, “Indole amide derivatives and related compounds for use in the treatment of neurodegenerative diseases” (Katholieke Universiteit Leuven, K.U. Leuven R&D, priority 2009, dated 2013):

Test system: M17-TAU P301L cells
Test: TAU cytotoxicity assay: LDH leakage of retinoic acid incubated M17-TAU P301L cells
Type: cell-based, human
Conditions: Homo sapiens, 168 h, reduction of LDH activity of retinoic acid incubated M17-TAU P301L cells, 7 days
From the text: A TAU expression plasmid was constructed by sub-cloning the cDNA of human TAU-P301 L (encoding for TAU with proline 301 substituted by a leucine residue) into mammalian expression vector pcDNA3.1 resulting in plasmid pcDNA3.1-TAU P301L. Plasmids pcDNA3.1 and pcDNA3.1-TAU P301L were transfected to human neuroblastoma cells ([…]; ATCC No. CRL-2267) and independent clonal lines with the plasmids stably integrated into the genome were selected. […] Expression of the TAU P301L genes in the cell lines was confirmed by Western analysis.
In degenerated or dead cells lactate dehydrogenase (LDH) is leaked out of the cells into the extracellular environment due to a loss of plasma-membrane integrity. This principle was used to determine cytotoxicity by quantifying the level of leaked LDH into the growth medium.
The detailed method for determining TAU cytotoxicity was as follows: From appropriate precultures of M17-3.1 and M17-TAU(P301L) cells were seeded at 2500 cells/cm2 in Optimem Reduced Serum without phenol red (Gibco, Cat. 31985-047) supplemented with 1% fetal calf serum, 1 mM sodium pyruvate, 1× non-essential amino acids, 500 μg/ml G418 0.5× antibiotic/antimycotic. After 3 h of incubation at 37° C./5% CO2 1 volume of Optimem Reduced Serum (same as described above; except without fetal calf serum) supplemented with 2.5 μM retinoic acid (RA) was added. The cells were further incubated for 7 days. Subsequently, LDH activity was determined using Promega Cytotox 96 Non-Radioactive cytotoxicity assay, (Cat. G1780) according the supplier's instructions.
The M17-TAU P301L cell line made it possible to assess the ability of novel compounds to counteract TAU cytotoxicity. […] These measurements were used to calculate EC50 values of table 2.
Exemplary compounds of the present invention are shown in table 2, with their chemical name and their EC50 value (expressed in nM) as determined from example 196 in the Tau-induced toxicity experiment.

Row | SMILES | EC50 [nM]
1 | O=C(NCCc1c[nH]c2ccc(Cl)cc12)C1=NOC(c2ccccc2)C1 (centres unmarked) [Example D55, N-(2-(5-chloro-1H-indol-3-yl)ethyl)-5-phenyl-4,5-dihydroisoxazole-3-carboxamide] | 189
2 | O=C(NCCc1c[nH]c2ccc(Cl)cc12)c1cc(-c2ccc(Cl)cc2)on1 [Example D56, N-(2-(5-chloro-1H-indol-3-yl)ethyl)-5-(4-chlorophenyl)isoxazole-3-carboxamide] | 190
3 | Cc1ccc(-c2cc(C(=O)NCCc3c[nH]c4ccc(Cl)cc34)no2)cc1 [Example D57, N-(2-(5-chloro-1H-indol-3-yl)ethyl)-5-p-tolylisoxazole-3-carboxamide] | 195
4 | O=C(NCCc1c[nH]c2ccc(Cl)cc12)C1=N[C@H](C2CCCCC2)CO1 [Example D58, (R)-N-(2-(5-chloro-1H-indol-3-yl)ethyl)-4-cyclohexyl-4,5-dihydrooxazole-2-carboxamide] | 202
5 | O=C(NCCc1c[nH]c2ccc(Cl)cc12)C1=N[C@@H](C2CCCCC2)CO1 [Example D59, (S)-N-(2-(5-chloro-1H-indol-3-yl)ethyl)-4-cyclohexyl-4,5-dihydrooxazole-2-carboxamide] | 211
6 | O=C(NCCc1c[nH]c2ccc(Cl)cc12)c1nnc(Cc2ccccc2)o1 [Example D60, 5-benzyl-N-(2-(5-chloro-1H-indol-3-yl)ethyl)-1,3,4-oxadiazole-2-carboxamide] | 213
7 | O=C(NCCc1c[nH]c2ccc(Cl)cc12)c1cc(CN2CCCC2)on1 [Example D61, N-(2-(5-chloro-1H-indol-3-yl)ethyl)-5-(pyrrolidin-1-ylmethyl)isoxazole-3-carboxamide] | 227
8 | Cc1oc(-c2ccccc2)nc1C(=O)NCCc1c[nH]c2ccc(Cl)cc12 [Example D62, N-(2-(5-chloro-1H-indol-3-yl)ethyl)-5-methyl-2-phenyloxazole-4-carboxamide] | 237
9 | O=C(NCCc1c[nH]c2ccc(Cl)cc12)N1CCC(c2ccccc2)C1 (centres unmarked) [Example D63, N-(2-(5-chloro-1H-indol-3-yl)ethyl)-3-phenylpyrrolidine-1-carboxamide] | 304
10 | O=C(NCCc1c[nH]c2ccc(Cl)cc12)C1CCN(c2ccccc2)C1=O (centres unmarked) [Example D64, N-(2-(5-chloro-1H-indol-3-yl)ethyl)-2-oxo-1-phenylpyrrolidine-3-carboxamide] | 313
11 | O=C(NCCc1c[nH]c2ccc(Cl)cc12)C1CCN(c2cccc(F)c2)C1=O (centres unmarked) [Example D65, N-(2-(5-chloro-1H-indol-3-yl)ethyl)-1-(3-fluorophenyl)-2-oxopyrrolidine-3-carboxamide] | 321
12 | CCNCc1cc(C(=O)NCCc2c[nH]c3ccc(Cl)cc23)no1 [Example D66, N-(2-(5-chloro-1H-indol-3-yl)ethyl)-5-((ethylamino)methyl)isoxazole-3-carboxamide] | 327
13 | O=C(NCCc1c[nH]c2ccc(Cl)cc12)c1csc(-c2ccccc2)n1 [Example D67, N-(2-(5-chloro-1H-indol-3-yl)ethyl)-2-phenylthiazole-4-carboxamide] | 333
14 | O=C(NCCc1c[nH]c2ccc(Cl)cc12)c1cc(-c2ccc(Cl)cc2)oc1C(F)(F)F [Example D68, N-(2-(5-chloro-1H-indol-3-yl)ethyl)-5-(4-chlorophenyl)-2-(trifluoromethyl)furan-3-carboxamide] | 337
15 | O=C(NCCc1c[nH]c2ccc(Cl)cc12)N1CCN(Cc2ccccc2)C1 [Example D69, 3-benzyl-N-(2-(5-chloro-1H-indol-3-yl)ethyl)imidazolidine-1-carboxamide] | 357
16 | COc1ccc(N2CCC(C(=O)NCCc3c[nH]c4ccc(Cl)cc34)C2=O)cc1 (centres unmarked) [Example D70, N-(2-(5-chloro-1H-indol-3-yl)ethyl)-1-(4-methoxyphenyl)-2-oxopyrrolidine-3-carboxamide] | 408
17 | CC(C)c1ccc(N2CCC(C(=O)NCCc3c[nH]c4ccc(Cl)cc34)C2=O)cc1 (centres unmarked) [Example D71, N-(2-(5-chloro-1H-indol-3-yl)ethyl)-1-(4-isopropylphenyl)-2-oxopyrrolidine-3-carboxamide] | 413
18 | Cc1cc(C(=O)NCCc2c[nH]c3ccccc23)c(C)n1C1CC1 [Example D72, N-(2-(1H-indol-3-yl)ethyl)-1-cyclopropyl-2,5-dimethyl-1H-pyrrole-3-carboxamide] | 453
19 | Cc1nc(-c2cnccn2)sc1C(=O)NCCc1c[nH]c2ccc(Cl)cc12 [Example D73, N-(2-(5-chloro-1H-indol-3-yl)ethyl)-4-methyl-2-(pyrazin-2-yl)thiazole-5-carboxamide] | 515

Row | SMILES | EC50 [nM]
20 | COc1ccc2c(CCNC(=O)c3cc(Cc4cccc(F)c4)on3)c[nH]c2c1 [Example D74, 5-(3-fluorobenzyl)-N-(2-(6-methoxy-1H-indol-3-yl)ethyl)isoxazole-3-carboxamide] | 534
21 | O=C(NCCc1c[nH]c2ccc(Cl)cc12)N1CCC(Cc2ccccc2)C1 (centres unmarked) [Example D75, 3-benzyl-N-(2-(5-chloro-1H-indol-3-yl)ethyl)pyrrolidine-1-carboxamide] | 534
22 | O=C(NCCc1c[nH]c2ccc(Cl)cc12)C1CCN(C2CCCCC2)C1=O (centres unmarked) [Example D76, N-(2-(5-chloro-1H-indol-3-yl)ethyl)-1-cyclohexyl-2-oxopyrrolidine-3-carboxamide] | 571
23 | O=C(NCCc1c[nH]c2ccc(Cl)cc12)c1nnc(C2CCCCC2)o1 [Example D77, N-(2-(5-chloro-1H-indol-3-yl)ethyl)-5-cyclohexyl-1,3,4-oxadiazole-2-carboxamide] | 595
24 | O=C(NCCc1c[nH]c2ccc(Cl)cc12)C1CCN(c2ccc(F)cc2)C1=O (centres unmarked) [Example D78, N-(2-(5-chloro-1H-indol-3-yl)ethyl)-1-(4-fluorophenyl)-2-oxopyrrolidine-3-carboxamide] | 691
25 | O=C(NCCc1c[nH]c2ccc(Cl)cc12)C1CCN(c2ccccc2F)C1=O (centres unmarked) [Example D79, N-(2-(5-chloro-1H-indol-3-yl)ethyl)-1-(2-fluorophenyl)-2-oxopyrrolidine-3-carboxamide] | 857
26 | O=C(NCCc1c[nH]c2ccc(Cl)cc12)C1=N[C@@H](Cc2ccccc2)CO1 [Example D80, (S)-4-benzyl-N-(2-(5-chloro-1H-indol-3-yl)ethyl)-4,5-dihydrooxazole-2-carboxamide] | 915
27 | O=C(NCCc1c[nH]c2ccc(Cl)cc12)C1=N[C@H](Cc2ccccc2)CO1 [Example D81, (R)-4-benzyl-N-(2-(5-chloro-1H-indol-3-yl)ethyl)-4,5-dihydrooxazole-2-carboxamide] | 917
28 | CCc1cccc(N2CCC(C(=O)NCCc3c[nH]c4ccc(Cl)cc34)C2=O)c1 (centres unmarked) [Example D82, N-(2-(5-chloro-1H-indol-3-yl)ethyl)-1-(3-ethylphenyl)-2-oxopyrrolidine-3-carboxamide] | 939
29 | O=C(NCCc1c[nH]c2ccc(Cl)cc12)C1=NC(c2ccccc2)CO1 (centres unmarked) [Example D83, N-(2-(5-chloro-1H-indol-3-yl)ethyl)-4-phenyl-4,5-dihydrooxazole-2-carboxamide] | 979
30 | COc1ccc2[nH]cc(CCNC(=O)c3c(-c4ccccc4)noc3C)c2c1 [Example D109, N-(2-(5-methoxy-1H-indol-3-yl)ethyl)-5-methyl-3-phenylisoxazole-4-carboxamide] | 3110
31 | Cc1ccc(Nc2nc(C(=O)NCCc3c[nH]c4ccccc34)cs2)cc1 [Example D110, N-(2-(1H-indol-3-yl)ethyl)-2-(p-tolylamino)thiazole-4-carboxamide] | 274
32 | Cc1onc(-c2ccccc2)c1C(=O)NCCc1c[nH]c2ccc(Cl)cc12 [Example D111, N-(2-(5-chloro-1H-indol-3-yl)ethyl)-5-methyl-3-phenylisoxazole-4-carboxamide] | 582
33 | Cc1ncoc1C(=O)NCCc1c[nH]c2ccc(Cl)cc12 [Example D112, N-(2-(5-chloro-1H-indol-3-yl)ethyl)-4-methyloxazole-5-carboxamide] | 1250
34 | Cc1cc(C(=O)NCCc2c[nH]c3ccc(Cl)cc23)no1 [Example D114, N-(2-(5-chloro-1H-indol-3-yl)ethyl)-5-methylisoxazole-3-carboxamide] | 30
35 | Cc1noc(-c2ccccc2)c1C(=O)NCCc1c[nH]c2ccc(Cl)cc12 [Example D115, N-(2-(5-chloro-1H-indol-3-yl)ethyl)-3-methyl-5-phenylisoxazole-4-carboxamide] | 269
36 | Cc1nc(C(=O)NCCc2c[nH]c3ccc(Cl)cc23)c(C)o1 [Example D116, N-(2-(5-chloro-1H-indol-3-yl)ethyl)-2,5-dimethyloxazole-4-carboxamide] | 306
37 | O=C(NCCc1c[nH]c2ccc(Cl)cc12)c1ccnn1-c1ccccc1 [Example D117, N-(2-(5-chloro-1H-indol-3-yl)ethyl)-1-phenyl-1H-pyrazole-5-carboxamide] | 979
38 | Cn1ccc(C(=O)NCCc2c[nH]c3ccc(Cl)cc23)n1 [Example D118, N-(2-(5-chloro-1H-indol-3-yl)ethyl)-1-methyl-1H-pyrazole-3-carboxamide] | 332
